The text below walks through data of patent EP4553080A1, “NUCLEOSIDE DERIVATIVES AS ANTIVIRAL AGENTS AGAINST CORONAVIRUSES” (Ustav Organicke Chemie a Biochemie AV CR, v.v.i., priority 2023, dated 2025).

Each structure is given as a SMILES string.

The experiment concerns the target nsp14 methyltransferase from SARS-CoV-2 (Severe acute respiratory syndrome coronavirus 2, UniProt P0DTD1). Nature of the experiment: Nsp14 MTase activity inhibition in vitro (EchoMS assay). To be noted: recombinant nsp14 protein expressed in E. coli; dose-response curve. It is filed as biochemical.
By IC50 is commonly meant the concentration at which inhibition is half-maximal. For the molecule `Cc1noc(-c2ccccc2)c1CSC[C@H]1O[C@@H](n2cc(-c3ccc([N+](=O)[O-])cc3)c3c(N)ncnc32)[C@H](O)[C@@H]1O` [Compound 144b], the IC50 was 0.03 to 0.1 µM.

On to `CC(C)c1onc(-c2ccccc2)c1CSC[C@H]1O[C@@H](n2ccc3c(N)ncnc32)[C@H](O)[C@@H]1O` [Compound 107c, (2R,3R,4S,5S)-2-(4-Amino-7H-pyrrolo[2,3-d]pyrimidin-7-yl)-5-((((5-isopropyl-3-phenylisoxazol-4-yl)methyl)thio)methyl)tetrahydrofuran-3,4-diol], for which the half-maximal inhibitory concentration (IC50) was in the range of 0.5 to 2 µM.

For `Cc1ccnc(-c2ccccc2)c1CSC[C@H]1O[C@@H](n2ccc3c(N)ncnc32)[C@H](O)[C@@H]1O` [Compound 62c, (2R,3R,4S,5S)-2-(4-Amino-7H-pyrrolo[2,3-d]pyrimidin-7-yl)-5-((((4-methyl-2-phenylpyridin-3-yl)methyl)thio)methyl)tetrahydrofuran-3,4-diol], the half-inhibitory concentration (IC50) is 0.5 to 2 µM.

With `COc1ccc(-c2nc(C)c(CSC[C@H]3O[C@@H](n4ccc5c(N)ncnc54)[C@H](O)[C@@H]3O)c(-c3ccccc3)n2)cc1OC` [Compound 119c, (2R,3R,4S,5S)-2-(4-Amino-7H-pyrrolo[2,3-d]pyrimidin-7-yl)-5-((((2-(3,4-dimethoxyphenyl)-4-methyl-6-phenylpyrimidin-5-yl)methyl)thio)methyl)tetrahydrofuran-3,4-diol], the IC50 was in the range of 0.03 to 0.1 µM.

Take `Cc1noc(-c2ccc3c(c2)OCO3)c1CSC[C@H]1O[C@@H](n2nc(-c3ccc(CC#N)cc3)c3c(N)ncnc32)[C@H](O)[C@@H]1O` [Compound 226, 2-(4-(4-Amino-1-((2R,3R,4S,5S)-5-((((5-(benzo[d][1,3]dioxol-5-yl)-3-methylisoxazol-4-yl)methyl)thio)methyl)-3,4-dihydroxytetrahydrofuran-2-yl)-1H-pyrazolo[3,4-d]pyrimidin-3-yl)phenyl)acetonitrile]: the IC50 lay within 0.01 to 0.03 µM.

Consider `Cc1noc(-c2ccccc2)c1CSC[C@H]1O[C@@H](n2cc(C(C)C)c3c(N)ncnc32)[C@H](O)[C@@H]1O` [Compound 129b], for which the 50% inhibitory concentration (IC50) lay within 0.1 to 0.5 µM.

Consider `Cc1noc(-c2ccccc2)c1CSC[C@H]1O[C@@H](n2cc(C#Cc3ccccc3)c3c(N)ncnc32)[C@H](O)[C@@H]1O` [Compound 180, (2R,3R,4S,5S)-2-(4-Amino-5-(phenylethynyl)-7H-pyrrolo[2,3-d]pyrimidin-7-yl)-5-((((3-methyl-5-phenylisoxazol-4-yl)methyl)thio)methyl)tetrahydrofuran-3,4-diol], for which the IC50 lay in the range of 0.03 to 0.1 µM.

Consider `Cc1noc(-c2ccccc2)c1CSC[C@H]1O[C@@H](n2cc(I)c3c(N)ncnc32)[C@H](O)[C@@H]1O` [Compound 123, (2R,3R,4S,5S)-2-(4-Amino-5-iodo-7H-pyrrolo[2,3-d]pyrimidin-7-yl)-5-((((3-methyl-5-phenylisoxazol-4-yl)methyl)thio)methyl)tetrahydrofuran-3,4-diol], for which the IC50 lay within 0.03 to 0.1 µM.

For the molecule `Cc1noc(-c2ccccc2)c1CSC[C@H]1O[C@@H](n2cc(C#Cc3cnc4ccccc4n3)c3c(N)ncnc32)[C@H](O)[C@@H]1O` [Compound 177b, (2R,3R,4S,5S)-2-(4-Amino-5-(quinoxalin-2-ylethynyl)-7H-pyrrolo[2,3-d]pyrimidin-7-yl)-5-((((3-methyl-5-phenylisoxazol-4-yl)methyl)thio)methyl)tetrahydrofuran-3,4-diol], the half-inhibitory concentration (IC50) lay within 0.03 to 0.1 µM.

For `C#Cc1cn([C@@H]2O[C@H](CSCc3c(C)noc3-c3ccccc3)[C@@H](O)[C@H]2O)c2ncnc(N)c12` [Compound 140b, (2R,3R,4S,5S)-2-(4-Amino-5-ethynyl-7H-pyrrolo[2,3-d]pyrimidin-7-yl)-5-((((3-methyl-5-phenylisoxazol-4-yl)methyl)thio)methyl)tetrahydrofuran-3,4-diol], the IC50 is 0.03 to 0.1 µM.

With `Cc1noc(-c2ccccc2)c1CSC[C@H]1O[C@@H](n2cc(CCc3ccccc3)c3c(N)ncnc32)[C@H](O)[C@@H]1O` [Compound 184, (2R,3R,4S,5S)-2-(4-Amino-5-phenethyl-7H-pyrrolo[2,3-d]pyrimidin-7-yl)-5-((((3-methyl-5-phenylisoxazol-4-yl)methyl)thio)methyl)tetrahydrofuran-3,4-diol], the 50% inhibitory concentration (IC50) was 0.1 to 0.5 µM.

`Cc1noc(-c2ccccc2)c1CSC[C@H]1O[C@@H](n2cc(C#Cc3cccc4ccccc34)c3c(N)ncnc32)[C@H](O)[C@@H]1O` [Compound 175b, (2R,3R,4S,5S)-2-(4-Amino-5-(naphthalen-1-ylethynyl)-7H-pyrrolo[2,3-d]pyrimidin-7-yl)-5-((((3-methyl-5-phenylisoxazol-4-yl)methyl)thio)methyl)tetrahydrofuran-3,4-diol]: the IC50 fell in the range of 0.5 to 2 µM.

For `Cc1ncc(-c2cn([C@@H]3O[C@H](CSCc4c(C)noc4-c4ccccc4)[C@@H](O)[C@H]3O)c3ncnc(N)c23)s1` [Compound 156, (2R,3R,4S,5S)-2-(4-Amino-5-(2-methylthiazol-5-yl)-7H-pyrrolo[2,3-d]pyrimidin-7-yl)-5-((((3-methyl-5-phenylisoxazol-4-yl)methyl)thio)methyl)tetrahydrofuran-3,4-diol], the IC50 was 0.01 to 0.03 µM.

Consider `Cc1noc(C2CCCCC2)c1CSC[C@H]1O[C@@H](n2ccc3c(N)ncnc32)[C@H](O)[C@@H]1O` [Compound 98c, (2R,3R,4S,5S)-2-(4-Amino-7H-pyrrolo[2,3-d]pyrimidin-7-yl)-5-((((5-cyclohexyl-3-methylisoxazol-4-yl)methyl)thio)methyl)tetrahydrofuran-3,4-diol], for which the IC50 lay in the range of 0.5 to 2 µM.

With `Cc1noc(-c2ccccc2)c1CSC[C@H]1O[C@@H](n2nc(-c3cccc(C(N)=O)c3)c3c(N)ncnc32)[C@H](O)[C@@H]1O` [Compound 221b, 3-(4-Amino-1-((2R,3R,4S,5S)-3,4-dihydroxy-5-((((3-methyl-5-phenylisoxazol-4-yl)methyl)thio)methyl)tetrahydrofuran-2-yl)-1H-pyrazolo[3,4-d]pyrimidin-3-yl)benzamide], the IC50 is 0.03 to 0.1 µM.

Turning to `Cc1ncnc(-c2ccccc2)c1CSC[C@H]1O[C@@H](n2ccc3c(N)ncnc32)[C@H](O)[C@@H]1O` [Compound 56c, (2R,3R,4S,5S)-2-(4-Amino-7H-pyrrolo[2,3-d]pyrimidin-7-yl)-5-((((4-methyl-6-phenylpyrimidin-5-yl)methyl)thio)methyl)tetrahydrofuran-3,4-diol], the IC50 was 0.1 to 0.5 µM.

Regarding `Cc1noc(-c2cscn2)c1CSC[C@H]1O[C@@H](n2ccc3c(N)ncnc32)[C@H](O)[C@@H]1O` [Compound 101c, (2R,3R,4S,5S)-2-(4-Amino-7H-pyrrolo[2,3-d]pyrimidin-7-y1)-5-((((3-methyl-5-(thiazol-4-y1)isoxazo1-4-yl)methyl)thio)methyl)tetrahydrofuran-3,4-diol], the IC50 was in the range of 0.03 to 0.1 µM.

For `Cc1noc(-c2ccccc2)c1CSC[C@H]1O[C@@H](n2cc(C3C[C@@H]4CC[C@H]3C4)c3c(N)ncnc32)[C@H](O)[C@@H]1O` (stereo in doubt) [Compound 136b, (2R,3R,4S,5S)-2-(4-Amino-5-((1S,4R)-bicyclo[2.2.1]heptan-2-yl)-7H-pyrrolo[2,3-d]pyrimidin-7-yl)-5-((((3-methyl-5-phenylisoxazol-4-yl)methyl)thio)methyl)tetrahydrofuran-3,4-diol], the IC50 fell in the range of 0.1 to 0.5 µM.

`Cc1noc(-c2ccccc2)c1CSC[C@H]1O[C@@H](n2cc(C#Cc3ncc[nH]3)c3c(N)ncnc32)[C@H](O)[C@@H]1O` [Compound 178b, (2R,3R,4S,5S)-2-(5-((1H-Imidazol-2-yl)ethynyl)-4-amino-7H-pyrrolo[2,3-d]pyrimidin-7-yl)-5-((((3-methyl-5-phenylisoxazol-4-yl)methyl)thio)methyl)tetrahydrofuran-3,4-diol]: the IC50 lay in the range of 0.03 to 0.1 µM.

On to `Cc1noc(-c2ccccc2)c1CSC[C@H]1O[C@@H](n2nc(-c3ccc(C#N)cc3)c3c(N)ncnc32)[C@H](O)[C@@H]1O` [Compound 219b, 4-(4-Amino-1-((2R,3R,4S,5S)-3,4-dihydroxy-5-((((3-methyl-5-phenylisoxazol-4-yl)methyl)thio)methyl)tetrahydrofuran-2-yl)-1H-pyrazolo[3,4-d]pyrimidin-3-yl)benzonitrile], for which the half-maximal inhibitory concentration (IC50) lay in the range of 0.03 to 0.1 µM.

For `Cc1noc(-c2ccccc2)c1CSC[C@H]1O[C@@H](n2nc(-c3ccc(CC#N)cc3)c3c(N)ncnc32)[C@H](O)[C@@H]1O` [Compound 222b, 2-(4-(4-Amino-1-((2R,3R,4S,5S)-3,4-dlhydroxy-5-((((3-methyl-5-phenylisoxazol-4-yl)methyl)thio)methyl)tetrahydrofuran-2-yl)-1H-pyrazolo[3,4-d]pyrimidin-3-yl)phenyl)acetonitrile], the IC50 is 0.01 to 0.03 µM.

Take `Cc1noc(-c2ccccc2)c1CSC[C@H]1O[C@@H](n2cc(SC34CC5CC(CC(C5)C3)C4)c3c(N)ncnc32)[C@H](O)[C@@H]1O` [Compound 191, (2R,3R,4S,5S)-2-(5-((Adamantan-1-yl)thio)-4-amino-7H-pyrrolo[2,3-d]pyrimidin-7-yl)-5-((((3-methyl-5-phenylisoxazol-4-yl)methyl)thio)methyl)tetrahydrofuran-3,4-diol]: the IC50 was in the range of 0.1 to 0.5 µM.

As for `Cc1noc(-c2ccccc2)c1CSC[C@H]1O[C@@H](n2cc(-c3ccc(C(F)(F)F)cc3)c3c(N)ncnc32)[C@H](O)[C@@H]1O` [Compound 145b], the IC50 lay within 0.1 to 0.5 µM.

In the case of `Cc1noc(-c2ccccc2)c1CSC[C@H]1O[C@@H](n2cc(Sc3ccccc3)c3c(N)ncnc32)[C@H](O)[C@@H]1O` [Compound 189b, (2R,3R,4S,5S)-2-(4-Amino-5-(phenylthio)-7H-pyrrolo[2,3-d]pyrimidin-7-yl)-5-((((3-methyl-5-phenylisoxazol-4-yl)methyl)thio)methyl)tetrahydrofuran-3,4-diol], the IC50 is 0.03 to 0.1 µM.

As for `Cc1noc(-c2ccccc2)c1CSC[C@H]1O[C@@H](n2cc(C#Cc3cccnc3)c3c(N)ncnc32)[C@H](O)[C@@H]1O` [Compound 170b, (2R,3R,4S,5S)-2-(4-Amino-5-(pyridin-3-ylethynyl)-7H-pyrrolo[2,3-d]pyrimidin-7-yl)-5-((((3-methyl-5-phenylisoxazol-4-yl)methyl)thio)methyl)tetrahydrofuran-3,4-diol], the IC50 was 0.01 to 0.03 µM.
